According to US11360104B2, “Microbial-based biosensors” (TRUSTEES OF BOSTON UNIVERSITY, priority 2017, dated 2022):
Read-outs that look alike come from different tables or passages of the source.

What was measured:
PinR = PinR (Nocardioides simplex (Pimelobacter simplex), UniProt A0A0A1DUF2); assay: Cross-reactivity assay of steroids using sensor 3; type: biochemical; details: for % cross-reactivity: relative to progesterone; for % cross-reactivity / P (slope of fit): sensor 3, HEPES 1×
Protocol: The cross-reactivity of progesterone regarding the different steroids was calculated with the following equation:
Description for a typical experiment, using a molar ratio of QD/TF/DNA=1/4/18.
50 uL of the sensor (QD/TF/DNA) was then splitted in 3×9 centrifuge tubes to which 10 uL of progesterone at the desired concentration is added. […] A 384 well plate was filled with 60 uL of each solution. The fluorescence intensity was monitored on a spectrofluorimeter from 535 nm to 800 nm exciting at 400 nm, equipped with a 450 nm long-pass filter in emission.

[1] = tested on: steroid responsive genome island (SRGI); assay: Whole transcriptome RNA-Seq of steroid treated P. simplex; type: cell-based, Pimelobacter simplex; details: P. simplex exposed to steroid vs solvent control, Log2 fold change
Text: (§1) In order to identify steroid binding Transcription Factors, a whole transcriptome RNA sequencing (RNA-Seq) screen was developed (FIG. 7). The growth of Pimelobacter simplex bacteria was profiled with respect to the starting inoculation density, solvent toxicity, and the addition of steroids (FIG. 16). […] P. simplex bacteria were screened against the steroid solvents ethanol (EtOH) and dimethyl sulfoxide (DMSO). […] Steroid growth curves were similarly performed using a starting OD of 0.005 and constant solvent dosing with titrations of steroids. […] P. simplex bacteria were grown in the presence of 700 μM testosterone, 21.88 μM progesterone, 87.50 μM estrone, 21.88 μM 17β-estradiol, 21.88 μM hydrocortisone, or 175.00 μM aldosterone concentrations were selected for comparison.
(§2) Using accession gene tags, genes were annotated for steroid relevant enzymes or transcription factors. […] Allosteric TF binding sequences are often palindromes and typically located near the start of its gene location in an intergenic space. With such a design, the allosteric TF can regulate itself or the open reading frame (ORF) near it in response to its effector molecule. […] Once identified, the TFs were cloned and recombinantly expressed for thorough characterization.
(§3) Cells were grown in 6 mL volumes of media at the OD, solvent, and steroid concentrations found from the growth curves in 14 mL polypropylene round-bottom tubes (Corning #352059) in technical duplicate. The same controls as in the steroid exposure growth curve were used for setting up RNA extraction samples. The cells were incubated at their corresponding temperature with continuous orbital shaking at 150 rpm until the end of lag-phase, mid-log phase, or stationary phase from the start of inoculation. Afterward, samples were removed and a 1:1 ratio of RNAprotect Bacteria Reagent (Qiagen #76506) was added followed by spinning down at 4° C. for 10 minutes at 4000 g. Supernatant was removed and the pellet re-suspended in 300 μL of RNAprotect and transferred into 2.0 mL Safe-Lock Tubes (Eppendorf #3101). The samples were then spun down once again at 4° C. for 10 minutes at 10000 g. Once the supernatant has been removed the samples were placed on ice and ready for RNA extraction. RNA extraction was done by Qiacube (Qiagen #9001292) set to the RNeasy Protect Bacteria Mini Kit protocol of bacterial cell pellet with enzymatic lysis. Tube A was prepared as described except with the addition of 150 mg/mL lysozyme (Sigma-Aldrich #L6876) and 20 mg/mL proteinase K (Roche #03115879001) all diluted in 1xTE buffer. RNA samples were subsequently quantified using Qubit RNA HS Assay Kit (Thermo Fisher Scientific #Q32852) and analyzed using a RNA 6000 Pico Kit (Agilent 5067-1513) in a 2100 Bioanalyzer (Agilent G2939A). RNA samples were either immediately used for RNA-Seq library preparation or stored long-term at −80° C.
(§4) RNA-Seq libraries were then produced from these samples using a slightly modified ScriptSeq v2 RNA-Seq Library Preparation Kit (Illumina 455A/22124) ensuring use of unique index primers through ScriptSeq Index PCR Primers (Sets 1-4) 48 rxns/set (Illumina #SSIP1234).

Pimelobacter simplex = assay: Solvent and steroid exposure growth curves
Text: as §1
In order to properly determine the doubling time of the strain, growth curves were performed. All growth curves were done in 100 μL per well volumes in 96 well flat clear bottom black polystyrene TC-treated microplates which were individually wrapped with a lid and sterile (Corning #3603). Measurements were done by an Infinite M200 Pro (TECAN) spectrophotometer at the temperature suited for P. simplex. Readings were performed over 96 cycles of 15 minutes each at 600 nm absorbance with 25 flashes in a 3×3 (XY-Line) type reads per well. In between reads there was orbital shaking at 150 rpm frequency for a total of 10 minutes. In order to characterize the growth alone, a ½ serial dilution of 9 concentrations from 0.5-0.0020 OD600 nm were prepared in the respective media. Then each concentration was measured as previously described using a microplate reader (TECAN) and normalized against a media background control in technical triplicate. Afterward, an appropriate starting concentration of cells was chosen with a substantially long lag-phase, linear log phase, and a plateau of stationary-phase.
Once an appropriate starting cell concentration was chosen, a secondary growth curve was performed to test the toxicity levels of the solvents used to dissolve steroids of interest. Since the steroids used are heavily hydrophobic, they often need to be dissolved in organic solvents such as DMSO or ethanol which are toxic to bacteria at high concentrations. P. simplex was incubated under microplate reader conditions previously mentioned at a starting OD determined by the first growth curve with DMSO, ethanol, or H2O at ½ serial dilutions for a total of eight concentrations (50-0.39%) tested in technical triplicate. Two controls were included per solvent; a positive control without solvent and a media control which allowed for appropriate normalization. Solvent exposure growth curves allowed for choosing the maximum amount of solvent concentration that strains would sustain while maintaining relative viability in order to determine a range of steroid concentrations which could be used.
A tertiary growth curve was performed to test the toxicity levels of steroid specific to P. simplex. The strain was incubated under microplate reader conditions previously mentioned at a starting OD determined by the first growth curve and the highest solvent concentration corresponding to the steroid of interest with steroid at ½ serial dilutions for a total of seven concentrations tested in singlet. Testosterone, progesterone, 17β-estradiol, hydrocortisone, and aldosterone were all dissolved in ethanol while estrone was dissolved in DMSO. Three controls were included for each steroid; a positive control with the highest tolerable solvent concentration (%), a positive control with media, and a media control which allowed for normalization. Steroid exposure growth curves allowed for choosing the maximum amount of steroid concentration that P. simplex would sustain while maintaining relative viability.

[2] = tested on: P. simplex bacteria (steroid responsive genome island, SRGI); assay: RNA-Seq screen of steroid treated P. simplex against solvent controls; type: cell-based, Pimelobacter simplex; details: Log2 fold change vs solvent control
Text: as §1, §2, §3, §4

[3] = tested on: Pimelobacter simplex PinR (AIY20223.2; SEQ ID NO: 1), his-tagged (AIY-his6); assay: QD-FRET steroid sensor (QD-PinR + DNA-Cy5), steroid-induced TF-DNA unbinding; type: biochemical
Protocol: Fluorescent spectra were analyzed using MATLAB (Mathworks) and were fitted with a sum of 2 Gaussians (D=QD: FWHM=27 nm, λmax=607 nm; A=DNA-Cy5: FWHM=40 nm, λmax=669 nm). The area of each Gaussian was extracted and FD and FA are obtained respectively for the fluorescence of QD (donor) and Cy5 (acceptor).
Raw dose-response curves were obtained by plotting FA/FD as a function of the steroid concentration. Sensor output is the normalization of the fluorescent spectra of the donor and acceptor according to the following equation: […]
Non-normalized dose-response were fitted with Origin Pro 8 software with the non-linear equation: […]
The cross-reactivity of progesterone regarding the different steroids was calculated with the following equation: […]
CdSe/CdS/ZnS QDs were coated with a zwitterionic polymer bearing histamine anchoring functions (P1, SI). Once the hydrophobic QDs were transferred into H2O using a biphasic ligand exchange, his-tagged TFs were self-assembled on the QD surface to produce the QD-TF. Addition of the double stranded, Cy5-labeled TF-binding sequence completed probe assembly as the oligo binds to the TF in the absence of progesterone (PRG). The molar ratios of the QD, TF, and DNA in the sensor were controlled through the stoichiometric ratios of the mixed parts.
Two fluorescent spectra were recorded, one from the QDs and one from the Cy5 due to the FRET.
First, the DNA1 (most binding sequence) has been used to build the first biosensor, named sensor 1. For this sensor, a ratio of QD/TF/DNA of 1/4/18 was chosen. […] In order to homogenize the fluorescent signals in between batches and different sensor variations, FA/FD was normalized to give the signal output. Signal output is then plotted against PRG concentration to give a dose-response curve (FIG. 9C) This curve was fitted with the non-linear equation XX to obtain the half-maximal inhibitory concentration (IC50) (Table 13).
Description for a typical experiment, using a molar ratio of QD/TF/DNA=1/4/18. QDs in (275 uL, 0.15 uM in HEPES 1×, pH 7.6 with 1% BSA) were mixed with AIY-his6 (275 uL, 0.6 uM in HEPES 1× pH 7.6) at room temperature for 45 min. Then, the double-stranded DNA labelled with a Cy5 fluorescent probe at the 3′ and 5′ ends (275 uL, 2.7 uM in HEPES 1× pH 7.6) was added to the mixture. After 30 min, 220 uL of HEPES 1× pH 7.5 and 330 uL of 5× binding buffer (25 mM MgCl2, 25% glycerol, and 250 mg/L Invitrogen™ UltraPure™ Salmon Sperm DNA in Tris-HCl 0.1M) were added and the mixture is left 15 more min at RT.
50 uL of the sensor (QD/TF/DNA) was then splitted in 3×9 centrifuge tubes to which 10 uL of progesterone at the desired concentration is added. As such, the final concentration of QD/TF/DNA for the measurements is 25 nM/100 nM/450 nM. A 384 well plate was filled with 60 uL of each solution. The fluorescence intensity was monitored on a spectrofluorimeter from 535 nm to 800 nm exciting at 400 nm, equipped with a 450 nm long-pass filter in emission.

[4] = P. simplex, starting OD 0.005, constant solvent

Chain of PinR (A0A0A1DUF2 entry or part of it): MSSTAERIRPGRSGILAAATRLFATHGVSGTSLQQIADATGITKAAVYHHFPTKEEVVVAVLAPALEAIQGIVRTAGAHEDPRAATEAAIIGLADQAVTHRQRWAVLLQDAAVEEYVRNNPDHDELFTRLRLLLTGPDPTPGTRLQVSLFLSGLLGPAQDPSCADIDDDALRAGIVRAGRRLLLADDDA

C[C@]12CCC(=O)C=C1CC[C@@H]1[C@@H]2[C@@H](O)C[C@]2(C=O)[C@@H](C(=O)CO)CC[C@@H]12 [ALD, Aldosterone]
IC50 (PinR): 289 ± 36 nM
% cross-reactivity (PinR): 20 ± 2%
P (slope of fit) (PinR): 1.65 ± 0.28
upregulation of genes inside the SRGI [1]: observed
highest steroid concentration exhibiting normal growth profile (Pimelobacter simplex): 175.00 µM
upregulation of genes inside the SRGI (in words) [2]: upregulation of genes inside the SRGI were observed

C[C@]12CCC(=O)C=C1CC[C@@H]1[C@@H]2[C@@H](O)C[C@@]2(C)[C@H]1CC[C@]2(O)C(=O)CO [CRT, Hydrocortisone]
IC50 (PinR): 180 ± 19 nM
% cross-reactivity (PinR): 33 ± 3%
P (slope of fit) (PinR): 1.23 ± 0.13
upregulation of genes inside the SRGI [1]: observed
highest steroid concentration exhibiting normal growth profile (Pimelobacter simplex): 21.88 µM
upregulation of genes inside the SRGI (in words) [2]: upregulation of genes inside the SRGI were observed

C[C@]12CC[C@@H]3c4ccc(O)cc4CC[C@H]3[C@@H]1CC[C@@H]2O [ESD, 17β-Estradiol]
effect on sensor binding/unbinding (in words) ([3]; QD:TF:oligo 1:4:6, [QD]=50 nM): no impact on the sensor binding/unbinding
upregulation of genes inside the SRGI (in words) [2]: not when exposed to 17β-estradiol and estrone

C[C@]12CC[C@@H]3c4ccc(O)cc4CC[C@H]3[C@@H]1CCC2=O [ESN, Estrone]
highest steroid concentration exhibiting normal growth profile (Pimelobacter simplex; [4]): 87.50 µM
cross-reactivity (in words) ([3]; sensor 3 in HEPES 1×, 0 to 10 uM steroid): No cross-reactivity was observed
upregulation of genes inside the SRGI (in words) [2]: not when exposed to 17β-estradiol and estrone

C[C@]12CC[C@H]3[C@@H](CCC4=CC(=O)CC[C@@]43C)[C@@H]1CC[C@@H]2O [testosterone, Testosterone]
upregulation of genes inside the SRGI [1]: observed
highest steroid concentration exhibiting normal growth profile (Pimelobacter simplex; [4]): 700 µM
upregulation of genes inside the SRGI (in words) [2]: upregulation of genes inside the SRGI were observed
